# Where two headings read alike, the source gives them in different places.
# Assays:
# [1] = tested on: SKOV3 luciferase-positive cells; experiment: Treatment efficacy study; format: in vivo, nu/nu mice
# Text: The nu/nu mice were inoculated with tumor cells on Day 0 and treatment was started on Day 14. […] The devices were sterilized with ethylene oxide prior to implantation. All animal care guidelines as listed in the animal protocol were followed. The animals were imaged 2 times a week, similar to the tumor induction study. The animals in the toxicity study were sacrificed on day 56 and their organs (kidney, liver, spleen, intestines and bone) were removed immediately upon euthanasia to be fixed in 10% formalin overnight.
# SKOV3 cells [2] = conditions: for 2 hours; Royer et al.; used as positive control; cited from earlier work
# ovarian cancer = conditions: cited from earlier work
# SKOV3 cells [3] = experiment: In vitro cytotoxicity study; format: cell-based, human; conditions: 0.1 μg/mL over a period of 7 days, FIG. 5
# Protocol: RPMI 1640 with 20% fetal bovine serum (FBS) was used for culturing A2780 and OVCAR3, and McCoy's 5a cell growth media with 10% FBS was used for SKOV3 propagation. The cells were seeded in 96-well plates at 10^4 cells/well. […] The percentage cell viability was calculated as a percentage of the untreated group at each time point.
# [4] = DrugBank, DB01229; cited from earlier work
# [5] = tested on: OVCAR-3 ovarian tumor cell line; conditions: cited from earlier work
SMILES,"tumor size ([1]; IP bolus injection (10 mg/kg), 1 dose per week)","tumor mass ([1]; device or IP bolus 5 mg/kg 1x/wk from Day 14, vs untreated, FIG. 8)",critical condition to kill ovarian tumor cells (concentration) (SKOV3 cells [2]) [µg/mL],subjects who completed all cycles of therapy (ovarian cancer; IP therapy) [%],"overall survival (ovarian cancer; IP treatment, p=0.03) [months]",subjects who completed all cycles of therapy (ovarian cancer; IV therapy) [%],overall survival (ovarian cancer; IV treatment) [months],killing of tumor cells at 0.1 μg/mL (SKOV3 cells [3]),log P [4],median survival ([5]; 10 mg/kg dose) [days],median survival ([5]; 40 mg/kg)
N.N.[Cl][Pt][Cl] [cisplatin],remained relatively small,significant tumor mass reduction,10,42,65.6,83,49.7,too low to kill tumor cells,–,–,–
CC(=O)O[C@H]1C(=O)[C@@]2(C)[C@H]([C@H](OC(=O)c3ccccc3)[C@]3(O)C[C@H](OC(=O)[C@H](O)[C@@H](NC(=O)c4ccccc4)c4ccccc4)C(C)=C1C3(C)C)[C@]1(OC(C)=O)CO[C@@H]1C[C@@H]2O [paclitaxel],–,–,–,–,–,–,–,–,about 3.5,60,about 70 days

# Reference: patent US10058688B2 (Massachusetts Institute of Technology, priority 2012, dated 2018)
